{
  "source": "the supplement of paper PMC11208160",
  "data": [
    {"assay": "recombinant UMI read abundance after kanamycin selection (control-corrected) (log10(CPM+1)); higher = more efficient recombination; extreme values may be limits of the assay; sequences stand for … in AGTGCAGAGAAAATCGGCCAGTTTTCTCTGCCTGCAGTCCGCATGCCGTGGGACCCCTTGGGTTCTAACCTGTTGCCTAGATTTATGCAGCGGACTGCCTTTCTCCCAAAGTGATAAACCGG…AGGTTGGTTTCACT; site = the 11-nt donor", "in_short": "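The measure is log10(CPM+1) for recombinant UMIs. These were PCR-amplified across the donor–target junction and sequenced after Escherichia coli carrying a donor and donor-binding-loop pair library and a target plasmid with T7-inducible IS621 bridge recombinase was plated on IPTG (0.07 mM) plus kanamycin or unselected. CPM were averaged over two replicates and scaled by control-derived factors.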", "values": [
      {"sequence": "CTGCTACCATGGACCGGTTTTCCCGGTAATCCGTATTTGCT (site CTGCTACCTAA)", "recombinant UMI read abundance (log10)": 0.0092},
      {"sequence": "CTGCTACCATGGACCGGTTTTCCCGGTAATCCGTATTTGCT (site CTGCTACCTAC)", "recombinant UMI read abundance (log10)": 0.00952},
      {"sequence": "CTGCTACCATGGACCGGTTTTCCCGGTAATCCGTATTTGCT (site CTGCTACCTAG)", "recombinant UMI read abundance (log10)": 0},
      {"sequence": "CTGCTACCATGGACCGGTTTTCCCGGTAATCCGTATTTGCT (site CTGCTACCTAT)", "recombinant UMI read abundance (log10)": 0},
      {"sequence": "CTGCTACCATGGACCGGTTTTCCCGGTAATCCGTATTTGCT (site CTGCTACCTCG)", "recombinant UMI read abundance (log10)": 0.0163},
      {"sequence": "CTGCTACCATGGACCGGTTTTCCCGGTAATCCGTATTTGCT (site CTGCTACCTGG)", "recombinant UMI read abundance (log10)": 0},
      {"sequence": "CTGCTACCATGGACCGGTTTTCCCGGTAATCCGTATTTGCT (site CTGCTACCTTG)", "recombinant UMI read abundance (log10)": 0},
      {"sequence": "CTGCTACCATGGACCGGTTTTCCCGGTAATCCGTATTTGCT (site CTGCTAGCTAG)", "recombinant UMI read abundance (log10)": 0},
      {"sequence": "CTGCTACCATGGACCGGTTTTCCCGGTAATCCGTATTTGCT (site CTGCTATCTAG)", "recombinant UMI read abundance (log10)": 1.67},
      {"sequence": "CTGCTACCATGGACCGGTTTTCCCGGTAATCCGTATTTGCT (site CTGCTCCCTAG)", "recombinant UMI read abundance (log10)": 0.543},
      {"sequence": "CTGCTACCATGGACCGGTTTTCCCGGTAATCCGTATTTGCT (site CTGCTGCCTAG)", "recombinant UMI read abundance (log10)": 0.038},
      {"sequence": "CTGCTACCATGGACCGGTTTTCCCGGTAATCCGTATTTGCT (site CTGCTTCCTAG)", "recombinant UMI read abundance (log10)": 0},
      {"sequence": "CTGCTACCATGGACCGGTTTTCCCGGTAATCCGTATTTGCT (site CTGGTACCTAG)", "recombinant UMI read abundance (log10)": 0},
      {"sequence": "CTGCTACCATGGACCGGTTTTCCCGGTAATCCGTATTTGCT (site CTGTTACCTAG)", "recombinant UMI read abundance (log10)": 0},
      {"sequence": "CTGCTACCATGGACCGGTTTTCCCGGTAATCCGTATTTGCT (site CTTCTACCTAG)", "recombinant UMI read abundance (log10)": 0},
      {"sequence": "CTGCTACCATGGACCGGTTTTCCCGGTAATCCGTATTTGCT (site GTGCTACCTAG)", "recombinant UMI read abundance (log10)": 0},
      {"sequence": "CTGCTACCATGGACCGGTTTTCCCGGTAATCCGTATTTGCT (site TTGCTACCTAG)", "recombinant UMI read abundance (log10)": 0.00622},
      {"sequence": "CTGCTCTCATGGACCGGTTTTCCCGGTAATCCGTATTTGTA (site CTACTCTCTTA)", "recombinant UMI read abundance (log10)": 2.71},
      {"sequence": "CTGCTCTCATGGACCGGTTTTCCCGGTAATCCGTATTTGTA (site CTCCTCTCTTA)", "recombinant UMI read abundance (log10)": 0.876},
      {"sequence": "CTGCTCTCATGGACCGGTTTTCCCGGTAATCCGTATTTGTA (site CTGCTCTCTTA)", "recombinant UMI read abundance (log10)": 2.98},
      {"sequence": "CTGCTCTCATGGACCGGTTTTCCCGGTAATCCGTATTTGTA (site CTTCTCTCTTA)", "recombinant UMI read abundance (log10)": 1.06},
      {"sequence": "CTGCTGACATGGACCGGTTTTCCCGGTAATCCGTATTTGAC (site CTGCTGACTGT)", "recombinant UMI read abundance (log10)": 1.02},
      {"sequence": "CTGCTTGCATGGACCGGTTTTCCCGGTAATCCGTATTTGAT (site CTGCTTGCTAT)", "recombinant UMI read abundance (log10)": 2.21},
      {"sequence": "CTGGAAACATGGACCGGTTTTCCCGGTAATCCGTATTTGCT (site CTGGAAACTAG)", "recombinant UMI read abundance (log10)": 2.45},
      {"sequence": "CTGGAAACATGGACCGGTTTTCCCGGTAATCCGTATTTGCT (site CTGGAAACTCG)", "recombinant UMI read abundance (log10)": 0.534},
      {"sequence": "CTGGAAACATGGACCGGTTTTCCCGGTAATCCGTATTTGCT (site CTGGAAACTGG)", "recombinant UMI read abundance (log10)": 1.1},
      {"sequence": "CTGGAAACATGGACCGGTTTTCCCGGTAATCCGTATTTGCT (site CTGGAAACTTG)", "recombinant UMI read abundance (log10)": 0.49},
      {"sequence": "CTGGAAACATGGACCGGTTTTCCCGGTAATCCGTATTTGGA (site CTGGAAACTTA)", "recombinant UMI read abundance (log10)": 0.993},
      {"sequence": "CTGGAAACATGGACCGGTTTTCCCGGTAATCCGTATTTGGA (site CTGGAAACTTC)", "recombinant UMI read abundance (log10)": 1.89},
      {"sequence": "CTGGAAACATGGACCGGTTTTCCCGGTAATCCGTATTTGGA (site CTGGAAACTTG)", "recombinant UMI read abundance (log10)": 0},
      {"sequence": "CTGGAAACATGGACCGGTTTTCCCGGTAATCCGTATTTGGA (site CTGGAAACTTT)", "recombinant UMI read abundance (log10)": 2.09},
      {"sequence": "CTGGAGACATGGACCGGTTTTCCCGGTAATCCGTATTTGCA (site CTGGAAACTTG)", "recombinant UMI read abundance (log10)": 2.32},
      {"sequence": "CTGGAGACATGGACCGGTTTTCCCGGTAATCCGTATTTGCA (site CTGGACACTTG)", "recombinant UMI read abundance (log10)": 2.12},
      {"sequence": "CTGGAGACATGGACCGGTTTTCCCGGTAATCCGTATTTGCA (site CTGGAGACTTG)", "recombinant UMI read abundance (log10)": 2.66},
      {"sequence": "CTGGAGACATGGACCGGTTTTCCCGGTAATCCGTATTTGCA (site CTGGATACTTG)", "recombinant UMI read abundance (log10)": 1.03},
      {"sequence": "CTGGCAACATGGACCGGTTTTCCCGGTAATCCGTATTTGCA (site CTGGAAACTTG)", "recombinant UMI read abundance (log10)": 0},
      {"sequence": "CTGGCAACATGGACCGGTTTTCCCGGTAATCCGTATTTGCA (site CTGGCAACTTG)", "recombinant UMI read abundance (log10)": 1.01},
      {"sequence": "CTGGCAACATGGACCGGTTTTCCCGGTAATCCGTATTTGCA (site CTGGGAACTTG)", "recombinant UMI read abundance (log10)": 0},
      {"sequence": "CTGGCAACATGGACCGGTTTTCCCGGTAATCCGTATTTGCA (site CTGGTAACTTG)", "recombinant UMI read abundance (log10)": 0},
      {"sequence": "CTGGCACCATGGACCGGTTTTCCCGGTAATCCGTATTTGGC (site CTGGCACCTGC)", "recombinant UMI read abundance (log10)": 0.523},
      {"sequence": "CTGGCTGCATGGACCGGTTTTCCCGGTAATCCGTATTTGCG (site CTGGCTGCTCG)", "recombinant UMI read abundance (log10)": 0.887},
      {"sequence": "CTGGTACCATGGACCGGTTTTCCCGGTAATCCGTATTTGCT (site CTGATACCTAG)", "recombinant UMI read abundance (log10)": 0},
      {"sequence": "CTGGTACCATGGACCGGTTTTCCCGGTAATCCGTATTTGCT (site CTGCTACCTAG)", "recombinant UMI read abundance (log10)": 0},
      {"sequence": "CTGGTACCATGGACCGGTTTTCCCGGTAATCCGTATTTGCT (site CTGGTACCTAG)", "recombinant UMI read abundance (log10)": 0},
      {"sequence": "CTGGTACCATGGACCGGTTTTCCCGGTAATCCGTATTTGCT (site CTGTTACCTAG)", "recombinant UMI read abundance (log10)": 0},
      {"sequence": "CTGTAAACATGGACCGGTTTTCCCGGTAATCCGTATTTGCA (site CTGAAAACTTG)", "recombinant UMI read abundance (log10)": 0},
      {"sequence": "CTGTAAACATGGACCGGTTTTCCCGGTAATCCGTATTTGCA (site CTGCAAACTTG)", "recombinant UMI read abundance (log10)": 0.604},
      {"sequence": "CTGTAAACATGGACCGGTTTTCCCGGTAATCCGTATTTGCA (site CTGGAAACTTG)", "recombinant UMI read abundance (log10)": 0},
      {"sequence": "CTGTAAACATGGACCGGTTTTCCCGGTAATCCGTATTTGCA (site CTGTAAACTTG)", "recombinant UMI read abundance (log10)": 1.29},
      {"sequence": "CTGTACCCATGGACCGGTTTTCCCGGTAATCCGTATTTGTA (site CTGTACCCTTA)", "recombinant UMI read abundance (log10)": 0.461},
      {"sequence": "CTGTCTCCATGGACCGGTTTTCCCGGTAATCCGTATTTGTC (site CTGTCTCCTGA)", "recombinant UMI read abundance (log10)": 0.331},
      {"sequence": "CTTAGATCATGGACCGGTTTTCCCGGTAATCCGTATTTGGG (site CTTAGATCTCC)", "recombinant UMI read abundance (log10)": 0.475},
      {"sequence": "CTTATAACATGGACCGGTTTTCCCGGTAATCCGTATTTGGA (site CTTATAACTTC)", "recombinant UMI read abundance (log10)": 1},
      {"sequence": "CTTCAATCATGGACCGGTTTTCCCGGTAATCCGTATTTGGT (site CTTCAATCTAC)", "recombinant UMI read abundance (log10)": 1.96},
      {"sequence": "CTTCCGACATGGACCGGTTTTCCCGGTAATCCGTATTTGAC (site CTTCCGACTGT)", "recombinant UMI read abundance (log10)": 2.04},
      {"sequence": "CTTCCTACATGGACCGGTTTTCCCGGTAATCCGTATTTGAG (site CTACCTACTCT)", "recombinant UMI read abundance (log10)": 0.0179},
      {"sequence": "CTTCCTACATGGACCGGTTTTCCCGGTAATCCGTATTTGAG (site CTCCCTACTCT)", "recombinant UMI read abundance (log10)": 0.0168}
    ]}
  ]
}
